Source: PubChem BioAssay AID1963980 (Molecular Pharmacology Branch, DTP, NCI, 2024)

Tested on: 475296-252-R-J1-PDC spheroid viability
Test: Anticancer human tumor 475296-252-R-J1-PDC patient-derived rectal carcinoma cell line growth inhibition [PI3K]
Conditions: spheroids with HUVEC and MSC; for IC50: curve of first compound; for viability, T/C: stronger effect = lower value
How it was run: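 Viability of mixed-cell spheroids was determined after exposure to pairwise combinations, one partner being inavolisib, alpelisib, duvelisib or copanlisib. Highest tested concentration matched clinical Cmax where known and 10 microM where not, descending in half-log steps.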

[1] = second compound 0.0316 µM, first compound 0.0316 µM
[2] = second compound 0.0316 µM, first compound 0.1 µM
[3] = second compound 0.1 µM, first compound 0.0316 µM
[4] = second compound 0.1 µM, first compound 0.1 µM
[5] = second compound 0.316 µM, first compound 0.0316 µM
[6] = second compound 0.316 µM, first compound 0.1 µM
[7] = second compound 1 µM, first compound 0.0316 µM
[8] = second compound 1 µM, first compound 0.1 µM
[9] = second compound 3.16 µM, first compound 0.0316 µM
[10] = second compound 3.16 µM, first compound 0.1 µM
[11] = second compound 10 µM, first compound 0.0316 µM
[12] = second compound 10 µM, first compound 0.1 µM
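Also: spheroids exposed to agents for seven days before readout.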

SMILES: CC(=O)c1c(C)c2cnc(Nc3ccc(N4CCNCC4)cn3)nc2n(C2CCCC2)c1=O + Cc1nc(NC(=O)N2CCCC2C(N)=O)sc1-c1ccnc(C(C)(C)C(F)(F)F)c1
- IC50 (second compound 0.0316 µM): > 0.1 µM
- IC50 (second compound 0.1 µM): > 0.1 µM
- IC50 (second compound 0.316 µM): > 0.1 µM
- IC50 (second compound 1 µM): > 0.1 µM
- IC50 (second compound 3.16 µM): > 0.1 µM
- IC50 (second compound 10 µM): > 0.1 µM
- viability, T/C (second compound 0.0316 µM, first compound 0.000316 µM): 99.6%
- viability, T/C (second compound 0.0316 µM, first compound 0.001 µM): 96.9%
- viability, T/C (second compound 0.0316 µM, first compound 0.00316 µM): 101%
- viability, T/C (second compound 0.0316 µM, first compound 0.01 µM): 97.4%
- viability, T/C [1]: 117%
- viability, T/C [2]: 118%
- viability, T/C (second compound 0.1 µM, first compound 0.000316 µM): 106%
- viability, T/C (second compound 0.1 µM, first compound 0.001 µM): 94.4%
- viability, T/C (second compound 0.1 µM, first compound 0.00316 µM): 107%
- viability, T/C (second compound 0.1 µM, first compound 0.01 µM): 91.3%
- viability, T/C [3]: 103%
- viability, T/C [4]: 108%
- viability, T/C (second compound 0.316 µM, first compound 0.000316 µM): 92%
- viability, T/C (second compound 0.316 µM, first compound 0.001 µM): 114%
- viability, T/C (second compound 0.316 µM, first compound 0.00316 µM): 94.1%
- viability, T/C (second compound 0.316 µM, first compound 0.01 µM): 101%
- viability, T/C [5]: 110%
- viability, T/C [6]: 101%
- viability, T/C (second compound 1 µM, first compound 0.000316 µM): 101%
- viability, T/C (second compound 1 µM, first compound 0.001 µM): 95.5%
- viability, T/C (second compound 1 µM, first compound 0.00316 µM): 100%
- viability, T/C (second compound 1 µM, first compound 0.01 µM): 112%
- viability, T/C [7]: 104%
- viability, T/C [8]: 102%
- viability, T/C (second compound 3.16 µM, first compound 0.000316 µM): 90.4%
- viability, T/C (second compound 3.16 µM, first compound 0.001 µM): 102%
- viability, T/C (second compound 3.16 µM, first compound 0.00316 µM): 96.8%
- viability, T/C (second compound 3.16 µM, first compound 0.01 µM): 99%
- viability, T/C [9]: 99.8%
- viability, T/C [10]: 98.9%
- viability, T/C (second compound 10 µM, first compound 0.000316 µM): 98%
- viability, T/C (second compound 10 µM, first compound 0.001 µM): 92.7%
- viability, T/C (second compound 10 µM, first compound 0.00316 µM): 96.9%
- viability, T/C (second compound 10 µM, first compound 0.01 µM): 98.9%
- viability, T/C [11]: 98.8%
- viability, T/C [12]: 90.2%

SMILES: CC1(C)CCC(Nc2ncc(C(F)(F)F)c(-c3c[nH]c4c(P(C)(C)=O)c(C#N)ccc34)n2)CN1 (centres undefined) + CC(Nc1ncnc2nc[nH]c12)c1cc2cccc(Cl)c2c(=O)n1-c1ccccc1
- IC50 (second compound 0.0316 µM): > 10 µM
- IC50 (second compound 0.1 µM): > 10 µM
- IC50 (second compound 0.316 µM): > 10 µM
- IC50 (second compound 1 µM): > 10 µM
- IC50 (second compound 3.16 µM): > 10 µM
- IC50 (second compound 10 µM): 9.12 µM
- viability, T/C [1]: 97.6%
- viability, T/C [2]: 93%
- viability, T/C (second compound 0.0316 µM, first compound 0.316 µM): 93.1%
- viability, T/C (second compound 0.0316 µM, first compound 1 µM): 129%
- viability, T/C (second compound 0.0316 µM, first compound 3.16 µM): 160%
- viability, T/C (second compound 0.0316 µM, first compound 10 µM): 64.5%
- viability, T/C [3]: 98%
- viability, T/C [4]: 91.5%
- viability, T/C (second compound 0.1 µM, first compound 0.316 µM): 95.1%
- viability, T/C (second compound 0.1 µM, first compound 1 µM): 117%
- viability, T/C (second compound 0.1 µM, first compound 3.16 µM): 159%
- viability, T/C (second compound 0.1 µM, first compound 10 µM): 52.2%
- viability, T/C [5]: 93.8%
- viability, T/C [6]: 86.8%
- viability, T/C (second compound 0.316 µM, first compound 0.316 µM): 114%
- viability, T/C (second compound 0.316 µM, first compound 1 µM): 120%
- viability, T/C (second compound 0.316 µM, first compound 3.16 µM): 164%
- viability, T/C (second compound 0.316 µM, first compound 10 µM): 55.7%
- viability, T/C [7]: 98.8%
- viability, T/C [8]: 92.9%
- viability, T/C (second compound 1 µM, first compound 0.316 µM): 86.5%
- viability, T/C (second compound 1 µM, first compound 1 µM): 139%
- viability, T/C (second compound 1 µM, first compound 3.16 µM): 166%
- viability, T/C (second compound 1 µM, first compound 10 µM): 54.1%
- viability, T/C [9]: 91.9%
- viability, T/C [10]: 86%
- viability, T/C (second compound 3.16 µM, first compound 0.316 µM): 89.6%
- viability, T/C (second compound 3.16 µM, first compound 1 µM): 113%
- viability, T/C (second compound 3.16 µM, first compound 3.16 µM): 154%
- viability, T/C (second compound 3.16 µM, first compound 10 µM): 53.3%
- viability, T/C [11]: 88.7%
- viability, T/C [12]: 81.6%
- viability, T/C (second compound 10 µM, first compound 0.316 µM): 102%
- viability, T/C (second compound 10 µM, first compound 1 µM): 128%
- viability, T/C (second compound 10 µM, first compound 3.16 µM): 152%
- viability, T/C (second compound 10 µM, first compound 10 µM): 44.7%
